# How the values were obtained:
# [1] = Intranasal 10 mg Phase 2 studies in women with FSAD: plasma concentration 30 minutes post dose; type: in vivo, human; conditions: 10 mg intranasal
# Experimental: In the bremelanotide premenopausal arm, 42.5% of the subjects were discontinued due to hypertension, nausea, vomiting or myalgia. Subjects received a 10 mg intranasal dose of bremelanotide, with premenopausal subjects determined to have a mean plasma concentration of 88.5±51.9 ng/mL and a % CV of 58.6, and postmenopausal subjects determined to have a mean plasma concentration of 93.2±68.5 ng/mL and a % CV of 73.5. The minimum and maximum plasma concentration levels for all women at thirty minutes post dose range from 0.0 ng/mL to 207.0 ng/mL.
# In the intranasal study, premenopausal women self-administered a 10 mg intranasal dose.
# [2] = test system: men diagnosed with erectile dysfunction; conditions: subcutaneous injection of 4 or 6 mg; cited from earlier work
# female rats = conditions: cited from earlier work
# [3] = Example 1: plasma pharmacokinetics after in-clinic subcutaneous dose; type: in vivo, human
# Experimental: Ambulatory blood pressure monitoring was conducted following both placebo and randomized treatment group in-clinic administrations. Three periods of ambulatory blood pressure monitoring were included, the first period was from before to 24 hours after a single, in-clinic dose of placebo (to establish a baseline); the second and third periods occurred from before to 24 hours after each of 2 single, in-clinic doses of double-blind treatment, administered within 14 days of each other. Blood samples for pharmacokinetic analysis were collected before and at 0.5, 1.0, and 2.0 hours after each in-clinic bremelanotide single-dose treatment (double-blind only), to permit analysis of concentration-response relationships.
# Mean pharmacokinetic parameters were determined by bremelanotide dose and visit, including Cmax determinations (the highest ng/mL concentration at either 0.5 or 1 hour post administration) and AUC determinations at two hours and, for a subset of subjects in each group, at four hours.
# The Cmax for the mean curve was calculated by averaging the concentrations at each time point (0.5, 1, 2 and 4 hours), and this is shown in FIG. 3.
# [4] = all women, thirty minutes post dose
smiles,measurement,setting,value
"CCCC[C@H](NC(C)=O)C(=O)N[C@H]1CC(=O)NCCCC[C@@H](C(=O)O)NC(=O)[C@H](Cc2c[nH]c3ccccc23)NC(=O)[C@H](CCCNC(=N)N)NC(=O)[C@@H](Cc2ccccc2)NC(=O)[C@H](Cc2c[nH]cn2)NC1=O [bremelanotide, Ac-Nle-cyclo(-Asp-His-D-Phe-Arg-Trp-Lys)-OH]",maximum plasma concentration level,[1]; [4],207.0 ng/mL
same,minimum plasma concentration level,[1]; [4],0.0 ng/mL
same,% CV of plasma concentration,[1]; postmenopausal subjects,73.5%
same,% CV of Cmax (plasma concentration),"[1]; premenopausal women, 30 minutes post dosing",58.6%
same,level at 0.5 h,"[1]; female, human, plasma, inhaled or intranasal, postmenopausal subjects",93.2 ± 68.5 ng/mL
same,erectile response,[2],statistically significant erectile response compared to placebo
same,effect on sexual behavior,female rats,selective pharmacological effect on appetitive sexual behavior
same,Fos induction,female rats; subcutaneous injections,inducing the immediate-early gene product Fos in a variety of limbic and hypothalamic structures
same,dopamine release,female rats; subcutaneous injections,increasing dopamine release in the medial preoptic area
same,AUC(0-2 h) % CV,"[3]; 0.75 mg SC, Visit 5",24%
same,AUC(0-2 h) Max,"[3]; 0.75 mg SC, Visit 5",85 ng·h/mL
same,AUC(0-2 h) Mean,"[3]; 0.75 mg SC, Visit 5",53 ng·h/mL
same,AUC(0-2 h) Median,"[3]; 0.75 mg SC, Visit 5",52 ng·h/mL
same,AUC(0-2 h) Min,"[3]; 0.75 mg SC, Visit 5",25 ng·h/mL
same,AUC(0-4 h) % CV,"[3]; 0.75 mg SC, Visit 5",23%
same,AUC(0-4 h) Max,"[3]; 0.75 mg SC, Visit 5",126 ng·h/mL
same,AUC(0-4 h) Mean,"[3]; 0.75 mg SC, Visit 5",84 ng·h/mL
same,AUC(0-4 h) Median,"[3]; 0.75 mg SC, Visit 5",80 ng·h/mL
same,AUC(0-4 h) Min,"[3]; 0.75 mg SC, Visit 5",50 ng·h/mL
same,Cmax % CV,"[3]; 0.75 mg SC, Visit 5",27%
same,Cmax Max,"[3]; 0.75 mg SC, Visit 5",60 ng/mL
same,Cmax Median,"[3]; 0.75 mg SC, Visit 5",36 ng/mL
same,Cmax Min,"[3]; 0.75 mg SC, Visit 5",17 ng/mL
same,AUC(0-2 h) % CV,"[3]; 0.75 mg SC, Visit 7",24%
same,AUC(0-2 h) Max,"[3]; 0.75 mg SC, Visit 7",92 ng·h/mL
same,AUC(0-2 h) Mean,"[3]; 0.75 mg SC, Visit 7",53 ng·h/mL
same,AUC(0-2 h) Median,"[3]; 0.75 mg SC, Visit 7",52 ng·h/mL
same,AUC(0-2 h) Min,"[3]; 0.75 mg SC, Visit 7",26 ng·h/mL
same,AUC(0-4 h) % CV,"[3]; 0.75 mg SC, Visit 7",20%
same,AUC(0-4 h) Max,"[3]; 0.75 mg SC, Visit 7",120 ng·h/mL
same,AUC(0-4 h) Mean,"[3]; 0.75 mg SC, Visit 7",80 ng·h/mL
same,AUC(0-4 h) Median,"[3]; 0.75 mg SC, Visit 7",79 ng·h/mL
same,AUC(0-4 h) Min,"[3]; 0.75 mg SC, Visit 7",51 ng·h/mL
same,Cmax % CV,"[3]; 0.75 mg SC, Visit 7",27%
same,Cmax Max,"[3]; 0.75 mg SC, Visit 7",78 ng/mL
same,Cmax Mean,"[3]; 0.75 mg SC, Visit 7",38 ng/mL
same,Cmax Min,"[3]; 0.75 mg SC, Visit 7",20 ng/mL
same,AUC(0-2 h) % CV,"[3]; 1.25 mg SC, Visit 5",25%
same,AUC(0-2 h) Max,"[3]; 1.25 mg SC, Visit 5",148 ng·h/mL
same,AUC(0-2 h) Mean,"[3]; 1.25 mg SC, Visit 5",86 ng·h/mL
same,AUC(0-2 h) Median,"[3]; 1.25 mg SC, Visit 5",81 ng·h/mL
same,AUC(0-2 h) Min,"[3]; 1.25 mg SC, Visit 5",42 ng·h/mL
same,AUC(0-4 h) % CV,"[3]; 1.25 mg SC, Visit 5",20%
same,AUC(0-4 h) Max,"[3]; 1.25 mg SC, Visit 5",187 ng·h/mL
same,AUC(0-4 h) Median,"[3]; 1.25 mg SC, Visit 5",136 ng·h/mL
same,AUC(0-4 h) Min,"[3]; 1.25 mg SC, Visit 5",86 ng·h/mL
same,Cmax % CV,"[3]; 1.25 mg SC, Visit 5",31%
same,Cmax Max,"[3]; 1.25 mg SC, Visit 5",126 ng/mL
same,Cmax Mean,"[3]; 1.25 mg SC, Visit 5",60 ng/mL
same,Cmax Min,"[3]; 1.25 mg SC, Visit 5",29 ng/mL
same,AUC(0-2 h) % CV,"[3]; 1.25 mg SC, Visit 7",25%
same,AUC(0-2 h) Max,"[3]; 1.25 mg SC, Visit 7",144 ng·h/mL
same,AUC(0-2 h) Mean,"[3]; 1.25 mg SC, Visit 7",84 ng·h/mL
same,AUC(0-2 h) Median,"[3]; 1.25 mg SC, Visit 7",84 ng·h/mL
same,AUC(0-2 h) Min,"[3]; 1.25 mg SC, Visit 7",24 ng·h/mL
same,AUC(0-4 h) % CV,"[3]; 1.25 mg SC, Visit 7",25%
same,AUC(0-4 h) Max,"[3]; 1.25 mg SC, Visit 7",199 ng·h/mL
same,AUC(0-4 h) Mean,"[3]; 1.25 mg SC, Visit 7",142 ng·h/mL
same,AUC(0-4 h) Median,"[3]; 1.25 mg SC, Visit 7",144 ng·h/mL
same,AUC(0-4 h) Min,"[3]; 1.25 mg SC, Visit 7",39 ng·h/mL
same,Cmax % CV,"[3]; 1.25 mg SC, Visit 7",33%
same,Cmax Max,"[3]; 1.25 mg SC, Visit 7",150 ng/mL
same,Cmax Mean,"[3]; 1.25 mg SC, Visit 7",60 ng/mL
same,Cmax Median,"[3]; 1.25 mg SC, Visit 7",60 ng/mL
same,Cmax Min,"[3]; 1.25 mg SC, Visit 7",18 ng/mL
same,AUC(0-2 h) % CV,"[3]; 1.75 mg SC, Visit 5",23%
same,AUC(0-2 h) Max,"[3]; 1.75 mg SC, Visit 5",171 ng·h/mL
same,AUC(0-2 h) Min,"[3]; 1.75 mg SC, Visit 5",17 ng·h/mL
same,AUC(0-4 h) % CV,"[3]; 1.75 mg SC, Visit 5",29%
same,AUC(0-4 h) Max,"[3]; 1.75 mg SC, Visit 5",289 ng·h/mL
same,AUC(0-4 h) Median,"[3]; 1.75 mg SC, Visit 5",179 ng·h/mL
same,AUC(0-4 h) Min,"[3]; 1.75 mg SC, Visit 5",25 ng·h/mL
same,Cmax % CV,"[3]; 1.75 mg SC, Visit 5",25%
same,Cmax Mean,"[3]; 1.75 mg SC, Visit 5",77 ng/mL
same,Cmax Median,"[3]; 1.75 mg SC, Visit 5",78 ng/mL
same,AUC(0-2 h) % CV,"[3]; 1.75 mg SC, Visit 7",25%
same,AUC(0-2 h) Max,"[3]; 1.75 mg SC, Visit 7",176 ng·h/mL
same,AUC(0-2 h) Median,"[3]; 1.75 mg SC, Visit 7",111 ng·h/mL
same,AUC(0-2 h) Min,"[3]; 1.75 mg SC, Visit 7",28 ng·h/mL
same,AUC(0-4 h) % CV,"[3]; 1.75 mg SC, Visit 7",25%
same,AUC(0-4 h) Max,"[3]; 1.75 mg SC, Visit 7",276 ng·h/mL
same,AUC(0-4 h) Mean,"[3]; 1.75 mg SC, Visit 7",184 ng·h/mL
same,AUC(0-4 h) Median,"[3]; 1.75 mg SC, Visit 7",180 ng·h/mL
same,AUC(0-4 h) Min,"[3]; 1.75 mg SC, Visit 7",72 ng·h/mL
same,Cmax % CV,"[3]; 1.75 mg SC, Visit 7",25%
same,Cmax Max,"[3]; 1.75 mg SC, Visit 7",127 ng/mL
same,Cmax Mean,"[3]; 1.75 mg SC, Visit 7",78 ng/mL
same,Cmax Median,"[3]; 1.75 mg SC, Visit 7",77 ng/mL
same,Cmax Min,"[3]; 1.75 mg SC, Visit 7",27 ng/mL
same,Cmax % CV,[3]; 1.75 mg subcutaneous dose,25%
same,median Cmax,[3]; 1.75 mg subcutaneous dose,78 ng/mL

# Reference: patent publication US10286034B2, “Uses of bremelanotide in therapy for female sexual dysfunction” (Palatin Technologies, Inc., priority 2012, dated 2019)
